Assay results published in patent US9539219B2, “Pharmaceutical compositions of carotenoid chylomicrons” (HEALTH-EVER BIOTECH CO. LTD, priority 2013, dated 2017).
Like-named read-outs stand apart in the source and are kept apart here. Each block holds one compound with its values, some of them ahead of it.

Columns and labels:
[1] = Stability at pH 2.0, 3.5, 6.0, 6.8 and 7.4; assay type: physicochemical; settings: pH 2.0, 3.5, 6.0, 6.8 and 7.4 for 1, 2, 4, 6, 12 or 24 h; for Change in concentration in micelles at different pH: micelle
Description: (§1) Likewise, when chylomicron was stored at pH 2.0, 3.5, 6.0, 6.8 and 7.4 for 1, 2, 4, 6, 12 or 24 h, the stability of solanorubin, octohydrogenosolanorubin and hexahydrogenosolanorubin was maintained. The encapsulation efficiency of solanorubin in chylomicron was assessed to be approximately 80%.
(§2) The average size of the micelle, based on DLS and TEM analyses, was approximately 7.5 nm, with spherical shape and transparent appearance. […] Also, the mean values of solanorubin, octohydrogenosolanorubin and hexahydrogenosolanorubin were ranged from 0.34-0.38 mg/mL, 0.03-0.04 mg/mL and 0.03-0.04 mg/mL, respectively, during storage or heating under the same condition. […] The encapsulation efficiency of solanorubin in micelle was determined to be about 78%.

[2] = Pharmacokinetic study of the chylomicron and micelle compositions in rats (gavage and i.v.); assay type: in vivo, male Sprague-Dawley rats; settings: rat
Description: The pharmacokinetic properties of the pharmaceutical composition prepared in Example 1 and the pharmaceutical composition prepared in Example 2 were assessed in male Sprague-Dawley rats.
A total of 24 rats (all rats with body weight of about 280 g each) were divided into two groups with 12 each, one received oral administration (gavage) while the other received intravenous (i.v.) injection.
The pharmaceutical composition in Example 1 and the pharmaceutical composition in Example 2 were administered via gavage and intravenous (IV) injection. An equivalent of 1.43 mg/kg of solanorubin was given by IV route (one-tenth of oral dosage) and an equivalent of 14.3 mg/kg of solanorubin was administered orally.
Blood samples were collected via the tail vein of the rats at the following time intervals: 2 minutes, 5 minutes, 10 minutes, 30 minutes, 1 hour, 2 hours, 4 hours, 8 hours, 24 hours, 48 hours and 72 hours after the composition was administered.
Pharmacokinetic study was carried out using the WinNonlin software system (Pharsight Co, Mountain View, Calif., USA) by non-compartmental model. The area under the drug concentration-time curve (AUC) was used to determine total amount of all-trans-solanorubin, cis-solanorubin, octohydrogenosolanorubin and hexahydrogenosolanorubin to reach the systematic circulation. Some other kinetic parameters such as Cmax, Tmax, and t1/2 were measured as well. The absolute bioavailability of trans-solanorubin, cis-solanorubin, octohydrogenosolanorubin and hexahydrogenosolanorubin was calculated using the following formula: […]
All the data were subjected to analysis of variance and Duncan's multiple range test using Statistical Analysis Software (SAS)^16 for statistical significance at P<0.05.

[3] = Stability during storage at 4° C. or 25° C. for 3 months or heating at 100° C. for 4 h; assay type: physicochemical; settings: 4° C. or 25° C. for 3 months or 100° C. for 4 h
Description: as §1, §2

Encapsulation efficiency = assay type: physicochemical
Description: as §1, §2

[4] = cited from earlier work
[5] = rat, Faisal et al. J. Pharm. Pharmacol. 2010, cited from earlier work
[6] = Pre-experiments on saturation of absorption (dose selection); assay type: in vivo; settings: several pre-experiments
[7] = male, Sprague-Dawley, in vivo, po, 14.3 mg/kg

Change in concentration in micelles at different pH [1]: only a minor change
AUC higher for IV administered micelle composition compared to IV administered chylomicron composition (difference) ([2]; in vivo, iv, 1.43 mg/kg): 544 µg·min/mL
Cmax of IV administered micelle composition, fold higher than IV administered chylomicron composition ([2]; in vivo, iv, 1.43 mg/kg): 9.6 fold
Tmax ([2]; in vivo, iv, 1.43 mg/kg): 0.033 h
Compound: CC(C)=CCCC(C)=CCCC(C)=CC=CC(C)=CC=CC=C(C)CCC=C(C)CCC=C(C)CCC=C(C)C [Hexahydrogenosolanorubin, hexahydrogenosolanorubin]

Change in concentration in micelles at different pH [1]: only a minor change
AUC higher for IV administered micelle composition compared to IV administered chylomicron composition (difference) ([2]; in vivo, iv, 1.43 mg/kg): 311 µg·min/mL
Cmax of IV administered micelle composition, fold higher than IV administered chylomicron composition ([2]; in vivo, iv, 1.43 mg/kg): 5.9 fold
Cmax ([2]; in vivo, po, 14.3 mg/kg): 60 ng/mL
Compound: CC(C)=CCC/C(C)=C/CC/C(C)=C/CC/C(C)=C/C=C/C=C(\C)CC/C=C(\C)CC/C=C(\C)CCC=C(C)C [Octohydrogenosolanorubin, octohydrogenosolanorubin]

Compound: CC(C)=CCC/C(C)=C/C=C/C(C)=C/C=C/C(C)=C/C=C/C=C(C)/C=C/C=C(C)/C=C/C=C(\C)CCC=C(C)C [Solanorubin, solanorubin]
Stability of the carotenoid in chylomicron (change in concentration) ([3]; chylomicron): high stability
Mean concentration during storage or heating ([3]; micelle): 340000 to 380000 ng/mL
Encapsulation efficiency (Encapsulation efficiency; solanorubin in chylomicron): approximately 80%
Encapsulation efficiency (Encapsulation efficiency; solanorubin in micelle): about 78%
Stability of the carotenoid in chylomicron at different pH ([1]; chylomicron): maintained
Change in concentration in micelles at different pH [1]: only a minor change
Solubility in water [4]: insoluble in water
Solubility in water ([4]; listed as solanorubin): practically insoluble in water
Cmax of IV administered micelle composition, fold higher than IV administered chylomicron composition ([2]; IV 1.43 mg/kg BW): 7.8 fold
AUC ([2]; male, Sprague-Dawley, in vivo, IV 1.43 mg/kg BW, read-out: AUC higher for IV administered micelle composition compared to IV administered chylomicron composition (difference) (converted)): 3380 ng·h/mL
bioavailability ([2]; male, Sprague-Dawley, in vivo, 14.3 mg/kg): 9.5%
bioavailability ([2]; male, Sprague-Dawley, in vivo, 14.3 mg/kg, Bioavailability): 6.8%
AUC ([2]; male, Sprague-Dawley, in vivo, iv, 1.43 mg/kg): 12200 ± 1400 ng·h/mL
AUC ([2]; male, Sprague-Dawley, in vivo, iv, 1.43 mg/kg, AUC): 8830 ng·h/mL
Tmax ([2]; male, Sprague-Dawley, in vivo, iv, 1.43 mg/kg, Tmax): 0.0333 h
AUC [2, 7]: 8380 ng·h/mL
Cmax [2, 7]: 180 ng/mL
Tmax [2, 7]: 4 h
t1/2 [2, 7]: 33.63 ± 5.43 h
AUC ([2]; male, Sprague-Dawley, in vivo, po, 14.3 mg/kg, AUC): 8270 ng·h/mL
Cmax ([2]; male, Sprague-Dawley, in vivo, po, 14.3 mg/kg, Cmax): 270 ng/mL
Tmax ([2]; male, Sprague-Dawley, in vivo, po, 14.3 mg/kg, Tmax): 2 h
half-life ([2]; male, Sprague-Dawley, in vivo, po, 14.3 mg/kg, t1/2): 28.9 ± 3.3 h
Bioavailability of solanorubin not encapsulated / from natural sources [5]: about 1.85%
Bioavailability of solanorubin not encapsulated / from natural sources ([5]; listed as non-encapsulated solanorubin): 1.85%

Compound: CC(C)=CCC/C(C)=C/C=C/C(C)=C/C=C/C(C)=C/C=C/C=C(C)/C=C/C=C(C)/C=C/C=C(\C)CCC=C(C)C [lycopene]
Dose above which saturation of absorption may occur [6]: higher than 14.3 mg/kg BW
